According to article PMC8956739, “A synthetic lipopeptide targeting top-priority multidrug-resistant Gram-negative pathogens” (Nature Communications, 2022):
Values after ≈ are worked out from the molar mass of the structure shown. Values joined by “and” are separate entries in the source; they are usually repeats but may differ in a detail not shown here. Equal values may be shown once. Read-outs that look alike come from different tables or passages of the source. Residues, ends and D or L forms follow the SMILES beside them.

How the values were obtained:
A. baumannii AB5075 [1] = assay type: cell-based, Acinetobacter baumannii; details: AB5075
How it was run: (§1)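 Broth microdilution, CaMHB; MIC read as the antibacterial endpoint against ATCC reference strains and clinical isolates.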

A. baumannii FADDI-AB030 = assay type: cell-based, Acinetobacter baumannii; details: FADDI-AB030
How it was run: as §1

A. baumannii ATCC 19606 = assay type: cell-based, Acinetobacter baumannii; details: ATCC 19606
How it was run: as §1

A. baumannii FADDI-AB034 = assay type: cell-based, Acinetobacter baumannii; details: FADDI-AB034
How it was run: as §1

A. baumannii AB5075 [2] = test: In vitro passaging, emergence of resistance; assay type: cell-based, Acinetobacter baumannii
Description: Log-phase cultures (OD600 = 0.5, ~10^8 CFU/mL) of A. baumannii AB5075 were inoculated (1:10, v/v) in 200 μL fresh CaMHB (cation-adjusted Mueller–Hinton broth) containing 2, 8 and 16 μg/mL polymyxin B, colistin, F287, and F365 in a 96-well microplate with 4 biological replicates. The cultures were incubated at 37 °C for 12 h before the next dilution (1:10, v/v) with fresh CaMHB. Successive subculturing was conducted for 7 days.

[3] = tested on: KCNJ16 knockout HK-2 cells; test: Cell viability after 24 h treatment; assay type: cell-based, human; details: 24 h treatment
Description: (§2) Fig. 6 Transcriptomic changes in human kidney proximal tubular HK-2 cells following treatments with polymyxin B (PMB), colistin (COL), F287, F319, and F365. a Numbers of differentially expressed genes. Distinctive intersections are color-coded. b Cell viability difference (two-tailed Student’s t-test, n = 4 biologically independent cells, Benjamini–Hochberg adjusted P-values) between wild-type HK-2 and KCNJ16 knockout (KO) cells following 24 h treatment with lipopeptides. n.s., not significant; ^*adjusted P < 0.05, ^**adjusted P < 0.01, ^***adjusted P < 0.001. Data are shown as mean ± s.d. and individual data points. c Extracted transcriptional regulatory network from Signor database with 1-step neighbor constraints (enlarged for detail). Source data are provided as a Source Data file.

[4] = Cell viability after 24 h treatment; assay type: cell-based, human; details: human, KCNJ16 knockout HK-2 cells (kidney proximal tubular), Cell viability, KCNJ16 KO, KCNJ16 knockout HK-2 cells, 24 h, Fig. 6b
Description: as §2

P. aeruginosa ATCC 27853 = test: Neutropenic mouse bloodstream infection model; assay type: in vivo; details: single IV dose 4 mg/kg
How it was run: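 Female Swiss mice made neutropenic with cyclophosphamide (150 mg/kg day −4, 100 mg/kg day −1), infected IV with 50 µL of 4 × 10^8 CFU/mL. Lipopeptide 4 mg/kg (free base) IV at 2 h post-inoculation, n = 3. Efficacy = Δlog10 CFU/mL blood versus saline at 4 h post-dose.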

HK-2 cells = test: Transcriptomic analysis (RNA-Seq) of kidney cells; assay type: cell-based, human; details: for logFC, differential gene expression for all genes / log2FC: HK-2 RNA-Seq; for log2FC: Fig. 5f
Description: Human Kidney-2 (HK-2) cells (CRL-2190™, American Type Culture Collection) were treated with 100 μM colistin, F287, F319, and F365 for 24 h. Previous transcriptomic data of HK-2 cells following 24 h treatment with polymyxin B[26] were also employed for comparative bioinformatic analysis. RNA extraction was conducted as described above. Raw reads were aligned to genome GRCh38.94 (Ensembl genome database, http://ftp.ensembl.org/pub/release-94/fasta/homo_sapiens/dna/) using […] and summarized by featureCounts. Differentially expressed genes were determined using limma 3.46.0, with a combination of fold change ≥ 1.5 and FDR (by Benjamini–Hochberg algorithm) adjusted P-value ≤ 0.05 (n = 3). Key regulatory genes of HK-2 were analyzed in the context of signaling network in the Signor 2.0 database. Enrichment analysis of gene differential expression in HK-2 cells was conducted using enrichR 2.1. UpSetR 1.4.0, ComplexHeatmap 2.6.2, circlize 0.4.13 and iGraph 1.2.11 were used for data visualization. Raw data were deposited in the Short Reads Archive database under accession numbers SRR15239061-SRR15239078.

For `CC[C@@H]1NC(=O)[C@@H](CC(C)C)NC(=O)[C@H](CCN)NC(=O)[C@@H](NC(=O)[C@H](CN)NC(=O)[C@@H](NC(=O)[C@H](CCN)NC(=O)c2ccc(Cl)cc2Cl)[C@@H](C)O)CCNC(=O)[C@H]([C@@H](C)O)NC(=O)[C@H](CCN)NC(=O)[C@H](CCN)NC1=O` [Lipopeptide F365] (HELM PEPTIDE1{[O=C(c1ccc(Cl)cc1Cl)[*:2]].[Dab].T.[NC[C@H](N[*:1])C(=O)[*:2]].[Dab].[Dab].[dL].[Abu].[Dab].[Dab].T}$PEPTIDE1,PEPTIDE1,5:R3-11:R2$$$V2.0), the “MIC A. baumannii AB5075” value (A. baumannii AB5075 [1]) was 0.5 µg/mL (≈ 0.431 µM), the “MIC A. baumannii FADDI-AB030” value (A. baumannii FADDI-AB030) was 0.25 µg/mL (≈ 0.215 µM) and the “MIC A. baumannii ATCC 19606” value (A. baumannii ATCC 19606) was 0.25 µg/mL (≈ 0.215 µM). For the same compound, the “MIC A. baumannii FADDI-AB034” value (A. baumannii FADDI-AB034) was 0.25 µg/mL (≈ 0.215 µM), the OD600 (A. baumannii AB5075 [2]; 8 ug/mL, time 0 h, passage 0, replicates rep1-rep4, raw OD600 (blank OD600 0.125333)) was 0.207 and 0.177 and 0.165 and 0.164 and the OD600 (A. baumannii AB5075 [2]; 8 ug/mL, time 12 h, passage 1, replicates rep1-rep4, raw OD600 (blank OD600 0.114667)) was 0.193 and 0.169 and 0.147 and 0.152. For the same compound, the OD600 (A. baumannii AB5075 [2]; 8 ug/mL, time 24 h, passage 2, replicates rep1-rep4, raw OD600 (blank OD600 0.0956667)) was 0.091 and 0.092 and 0.09, the OD600 (A. baumannii AB5075 [2]; 8 ug/mL, time 36 h, passage 3, replicates rep1-rep4, raw OD600 (blank OD600 0.088)) was 0.091 and 0.09 and 0.092 and the OD600 (A. baumannii AB5075 [2]; 8 ug/mL, time 48 h, passage 4, replicates rep1-rep4, raw OD600 (blank OD600 0.104667)) was 0.091 and 0.094 and 0.101. For the same compound, the OD600 (A. baumannii AB5075 [2]; 8 ug/mL, time 60 h, passage 5, replicates rep1-rep4, raw OD600 (blank OD600 0.122333)) was 0.112 and 0.116 and 0.106 and 0.123, the OD600 (A. baumannii AB5075 [2]; 8 ug/mL, time 72 h, passage 6, replicates rep1-rep4, raw OD600 (blank OD600 0.095)) was 0.092 and 0.085 and 0.096 and the OD600 (A. baumannii AB5075 [2]; 8 ug/mL, time 84 h, passage 7, replicates rep1-rep4, raw OD600 (blank OD600 0.091)) was 0.089 and 0.091 and 0.092 and 0.093. The OD600 (A. baumannii AB5075 [2]; 8 ug/mL, time 96 h, passage 8, replicates rep1-rep4, raw OD600 (blank OD600 0.0953333)) was 0.09 and 0.092 and 0.097 and 0.093, the OD600 (A. baumannii AB5075 [2]; 8 ug/mL, time 108 h, passage 9, replicates rep1-rep4, raw OD600 (blank OD600 0.100667)) was 0.111 and 0.118 and 0.121 and 0.105 and the OD600 (A. baumannii AB5075 [2]; 8 ug/mL, time 120 h, passage 10, replicates rep1-rep4, raw OD600 (blank OD600 0.0983333)) was 0.118 and 0.132 and 0.121 and 0.13. For the same compound, the OD600 (A. baumannii AB5075 [2]; 8 ug/mL, time 132 h, passage 11, replicates rep1-rep4, raw OD600 (blank OD600 0.0843333)) was 0.12 and 0.124 and 0.123 and 0.117, the OD600 (A. baumannii AB5075 [2]; 8 ug/mL, time 144 h, passage 12, replicates rep1-rep4, raw OD600 (blank OD600 0.091)) was 0.126 and 0.122 and 0.125 and 0.13 and the OD600 (A. baumannii AB5075 [2]; 8 ug/mL, time 156 h, passage 13, replicates rep1-rep4, raw OD600 (blank OD600 0.129)) was 0.117 and 0.116 and 0.13 and 0.112. For the same compound, the OD600 (A. baumannii AB5075 [2]; 8 ug/mL, time 168 h, passage 14, replicates rep1-rep4, raw OD600 (blank OD600 0.101)) was 0.095 and 0.092, the “time to emergence of resistance” value (A. baumannii AB5075 [2]; 4× MIC, 7-day passaging) was no more than 3 days and the “growth over 7 days” value (A. baumannii AB5075 [2]; 32× MIC) was “No growth”. The OD600 (A. baumannii AB5075 [2]; in vitro passaging, concentration 8 ug/mL, time 168 h, passage 14, individual replicates rep1-rep4, not blank-subtracted (blank OD600 0.101)) was 0.093 and 0.094, the “effect on cell viability” value [3] was “no effect on cell viability” and the viability at 24 h ([4]; Rep1, replicate 1, read-out: Cell viability, KCNJ16 KO, Rep1) was 76%. The viability at 24 h ([4]; Rep2, replicate 2, read-out: Cell viability, KCNJ16 KO, Rep2) was 94.1%, the viability at 24 h ([4]; Rep3, replicate 3, read-out: Cell viability, KCNJ16 KO, Rep3) was 100% and the viability at 24 h ([4]; Rep4, replicate 4, read-out: Cell viability, KCNJ16 KO, Rep4) was 73.7%. For the same compound, the “Log10 CFU/mL blood at 4 h, Mean” value (P. aeruginosa ATCC 27853; 4 h) was 4.36 Log10 CFU/mL blood, the “Δlog10 CFU/mL blood (mean)” value (P. aeruginosa ATCC 27853; 4 h, treated minus control, mean of replicates, 4 mg/kg) was −3.44 log10 CFU/mL blood and the “Log10 CFU/mL blood at 4 h, single mouse” value (P. aeruginosa ATCC 27853; 4 h, 4 mg/kg) was 5.03 Log10 CFU/mL blood and 4.95 Log10 CFU/mL blood and 3.10 Log10 CFU/mL blood. The “Delta Log10 CFU/mL blood at 4 h, single mouse” value (P. aeruginosa ATCC 27853; treated mouse minus mean of vehicle mice, 4 mg/kg) was -2.77 Log10 CFU/mL blood and -2.85 Log10 CFU/mL blood and -4.70 Log10 CFU/mL blood, the “logFC, differential gene expression for all genes” value (HK-2 cells; Geneid ENSG00000223972) was -0.04793 and the “logFC, differential gene expression for all genes” value (HK-2 cells; Geneid ENSG00000227232) was -0.06475. For the same compound, the “logFC, differential gene expression for all genes” value (HK-2 cells; Geneid ENSG00000233750) was -1.555, the “logFC, differential gene expression for all genes” value (HK-2 cells; Geneid ENSG00000278267) was 0.04711 and the log2FC (HK-2 cells; gene ENSG00000017483 SLC38A5) was -0.03439. It also gave a log2FC (HK-2 cells; gene ENSG00000023445 BIRC3) of -0.1649, a log2FC (HK-2 cells; gene ENSG00000056558 TRAF1) of 0.4036 and a log2FC (HK-2 cells; gene ENSG00000066468 FGFR2) of -0.6638. The num.of.degs (HK-2 cells; number of differentially expressed genes per peptide, Fig. 6a) was 70.
